{"source": "ChEMBL document CHEMBL1201862", "about": "“PubChem BioAssay data set” (2004)", "key": {"[1]": {"target": "Beta-2 adrenergic receptor (Homo sapiens, UniProt P07550)", "sequence (P07550 whole entry)": "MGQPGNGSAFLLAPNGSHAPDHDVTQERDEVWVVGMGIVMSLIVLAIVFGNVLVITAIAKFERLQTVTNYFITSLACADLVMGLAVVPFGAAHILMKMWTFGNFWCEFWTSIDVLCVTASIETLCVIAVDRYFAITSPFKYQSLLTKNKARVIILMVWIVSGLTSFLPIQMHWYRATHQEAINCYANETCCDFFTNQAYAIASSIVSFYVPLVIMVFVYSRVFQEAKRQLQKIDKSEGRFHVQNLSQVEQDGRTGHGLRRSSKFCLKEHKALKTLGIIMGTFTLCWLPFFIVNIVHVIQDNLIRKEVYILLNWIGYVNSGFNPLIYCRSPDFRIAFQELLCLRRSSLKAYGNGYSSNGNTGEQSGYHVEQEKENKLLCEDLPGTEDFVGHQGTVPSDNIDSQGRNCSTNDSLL", "assay": "beta2AR agonists driving receptor internalization, dose response, cell-based, FAP fluorogen, flow cytometry, cherry pick 1 (AID 588763)", "type": "functional"}, "Escherichia coli": {"test_system": "Escherichia coli", "assay": "microbe, parasite or virus in culture"}, "[2]": {"assay": "cytotoxicity toward DRD oncogenic fibroblasts, dose response, cell-based, non-viral oncogenic, luminescence (AID 1934)", "type": "functional", "conditions": "Homo sapiens"}, "[3]": {"target": "T1, Heat shock factor protein 1 (Mus musculus, UniProt P38532)", "T1 sequence (P38532 whole entry)": "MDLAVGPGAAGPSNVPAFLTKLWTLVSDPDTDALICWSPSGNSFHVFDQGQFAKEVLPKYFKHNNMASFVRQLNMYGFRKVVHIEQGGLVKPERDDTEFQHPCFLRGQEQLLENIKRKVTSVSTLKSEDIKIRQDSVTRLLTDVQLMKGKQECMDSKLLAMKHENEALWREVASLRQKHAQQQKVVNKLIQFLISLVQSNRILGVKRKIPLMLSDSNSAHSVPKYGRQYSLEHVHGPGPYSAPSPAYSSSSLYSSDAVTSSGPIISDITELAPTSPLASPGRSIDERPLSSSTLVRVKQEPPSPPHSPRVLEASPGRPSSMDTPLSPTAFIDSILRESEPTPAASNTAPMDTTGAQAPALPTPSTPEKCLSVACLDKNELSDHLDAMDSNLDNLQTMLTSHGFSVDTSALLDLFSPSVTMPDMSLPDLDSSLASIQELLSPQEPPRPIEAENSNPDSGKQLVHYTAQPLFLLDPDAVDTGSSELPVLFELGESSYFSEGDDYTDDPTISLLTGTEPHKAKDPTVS", "assay": "inhibition of MG132-induced HSE-luciferase signal, confirmation, cell-based, NIH3T3, luminescence, dose retest (AID 2382);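 note: NIH3T3 fibroblasts with HSF1-driven luciferase reporter stressed by proteasome inhibitor MG132; luminescence from HSF1-driven luciferase expression after 8 hours of MG132 stress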", "type": "functional"}, "BJ [4]": {"test_system": "BJ", "assay": "cytotoxicity toward Ras-transformed BJeLR fibroblasts, dose response, cell-based, alamar blue fluorescence, cherrypicked samples (AID 2631);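 note: confirmatory dose-response assay in RAS-dependent BJ fibroblasts engineered with TERT, LT and ST, with cytotoxicity read by fluorescence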", "type": "functional", "conditions": "Homo sapiens"}, "BJ [5]": {"test_system": "BJ", "assay": "cells", "type": "functional, cell-based", "conditions": "Homo sapiens"}, "BJ [6]": {"test_system": "BJ", "assay": "cytotoxicity toward BJ-TERT fibroblasts, dose response, cell-based, RAS-independent, luminescence (AID 1933)", "type": "functional", "conditions": "Homo sapiens"}, "BJ [7]": {"test_system": "BJ", "assay": "cytotoxicity toward BJ-TERT-LT-ST fibroblasts, dose response, cell-based, RAS-independent, luminescence (AID 1935);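 note: BJ fibroblasts immortalized with TERT plus LT and ST oncogenes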", "type": "functional", "conditions": "Homo sapiens"}, "[8]": {"target": "T1, Heat shock factor protein 1", "assay": "HSF1 potentiators in luciferase reporter cells, confirmation, cell-based, NIH3T3, luminescence, dose retest (AID 435004);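 note: stress induced by proteasome inhibitor MG132 added 30 min after compound; actives raise luminescence as potentiators of the MG132 stress response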", "type": "functional"}, "[9]": {"target": "Delta-type opioid receptor (Homo sapiens, UniProt P41143)", "sequence (P41143 whole entry)": "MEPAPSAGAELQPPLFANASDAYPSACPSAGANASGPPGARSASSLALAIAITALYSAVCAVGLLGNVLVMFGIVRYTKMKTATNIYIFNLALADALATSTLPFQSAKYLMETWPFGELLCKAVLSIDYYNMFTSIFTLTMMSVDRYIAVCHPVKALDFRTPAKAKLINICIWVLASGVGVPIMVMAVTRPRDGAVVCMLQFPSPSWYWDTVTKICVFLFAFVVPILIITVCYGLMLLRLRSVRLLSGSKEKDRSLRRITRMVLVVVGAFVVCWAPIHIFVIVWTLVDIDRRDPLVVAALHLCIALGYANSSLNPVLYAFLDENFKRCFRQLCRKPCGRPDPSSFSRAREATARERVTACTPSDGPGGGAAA", "assay": "Counterscreen for agonists of heterodimerization of the mu 1 (OPRM1) and delta 1 (OPRD1) opioid receptors: Luminescence-based cell-based high throughput dose response assay to identify agonists of OPRD1 homodimerization. [Related pubchem assays (depositor defined):AID504326, AID504355, AID504692, AID504904, AID504905]", "type": "functional"}, "[10]": {"target": "5-hydroxytryptamine receptor 5A (Homo sapiens, UniProt P47898)", "sequence (P47898 whole entry)": "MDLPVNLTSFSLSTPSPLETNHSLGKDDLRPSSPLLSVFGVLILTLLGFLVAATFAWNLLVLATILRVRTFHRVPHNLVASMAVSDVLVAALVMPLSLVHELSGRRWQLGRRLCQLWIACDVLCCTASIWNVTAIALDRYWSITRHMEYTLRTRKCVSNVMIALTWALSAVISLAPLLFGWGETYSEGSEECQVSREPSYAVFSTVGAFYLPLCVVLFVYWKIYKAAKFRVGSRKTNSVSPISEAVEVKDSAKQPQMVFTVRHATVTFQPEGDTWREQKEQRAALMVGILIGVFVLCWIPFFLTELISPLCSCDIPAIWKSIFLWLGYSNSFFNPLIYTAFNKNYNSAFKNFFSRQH", "assay": "Counterscreen for agonists of OPRM1-OPRD1 heterodimerization: luminescence-based cell-based high throughput dose response assay to identify agonists of 5-hydroxytryptamine (serotonin) 5A receptor (HTR5A). [Related pubchem assays (depositor defined):AID504326, AID504355, AID504692, AID504904, AID504905]", "type": "functional"}, "Mu-type opioid receptor": {"target": "Mu-type opioid receptor (Homo sapiens, UniProt P35372)", "sequence (P35372 whole entry)": "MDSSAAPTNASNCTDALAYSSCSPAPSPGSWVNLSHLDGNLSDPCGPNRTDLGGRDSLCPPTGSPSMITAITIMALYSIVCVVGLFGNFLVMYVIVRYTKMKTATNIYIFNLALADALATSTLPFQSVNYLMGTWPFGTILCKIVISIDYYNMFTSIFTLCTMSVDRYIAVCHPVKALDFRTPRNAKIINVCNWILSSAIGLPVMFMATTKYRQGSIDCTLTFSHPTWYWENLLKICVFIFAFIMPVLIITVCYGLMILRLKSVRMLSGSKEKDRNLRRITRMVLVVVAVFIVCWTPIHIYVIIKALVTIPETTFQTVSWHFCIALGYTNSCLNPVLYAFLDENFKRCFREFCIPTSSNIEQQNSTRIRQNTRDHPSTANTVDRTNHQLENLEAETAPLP", "assay": "Counterscreen for agonists of heterodimerization of the mu 1 (OPRM1) and delta 1 (OPRD1) opioid receptors: Luminescence-based cell-based high throughput dose response assay to identify agonists of OPRM1 homodimerization.", "type": "functional"}, "[11]": {"assay": "NIH-3T3 fibroblast cytotoxicity, dose response, cytotoxicity control, cell-based, fluorescence, Alamar Blue, secondary assay (AID 2327);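 note: NIH-3T3 mouse fibroblasts cultured with fluconazole at 8 µg/mL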", "type": "functional"}, "[12]": {"assay": "microbe, parasite or virus in culture", "type": "functional", "conditions": "Mycobacterium tuberculosis"}, "[13]": {"assay": "C. albicans growth with fluconazole, confirmation, fluorescence, retest (AID 2467)", "type": "functional, cell-based"}, "HEK293 [14]": {"test_system": "HEK293", "assay": "cells", "conditions": "Homo sapiens"}, "Ion channel NompC": {"target": "Ion channel NompC (Danio rerio, UniProt Q7T1G6)", "sequence (Q7T1G6 whole entry)": "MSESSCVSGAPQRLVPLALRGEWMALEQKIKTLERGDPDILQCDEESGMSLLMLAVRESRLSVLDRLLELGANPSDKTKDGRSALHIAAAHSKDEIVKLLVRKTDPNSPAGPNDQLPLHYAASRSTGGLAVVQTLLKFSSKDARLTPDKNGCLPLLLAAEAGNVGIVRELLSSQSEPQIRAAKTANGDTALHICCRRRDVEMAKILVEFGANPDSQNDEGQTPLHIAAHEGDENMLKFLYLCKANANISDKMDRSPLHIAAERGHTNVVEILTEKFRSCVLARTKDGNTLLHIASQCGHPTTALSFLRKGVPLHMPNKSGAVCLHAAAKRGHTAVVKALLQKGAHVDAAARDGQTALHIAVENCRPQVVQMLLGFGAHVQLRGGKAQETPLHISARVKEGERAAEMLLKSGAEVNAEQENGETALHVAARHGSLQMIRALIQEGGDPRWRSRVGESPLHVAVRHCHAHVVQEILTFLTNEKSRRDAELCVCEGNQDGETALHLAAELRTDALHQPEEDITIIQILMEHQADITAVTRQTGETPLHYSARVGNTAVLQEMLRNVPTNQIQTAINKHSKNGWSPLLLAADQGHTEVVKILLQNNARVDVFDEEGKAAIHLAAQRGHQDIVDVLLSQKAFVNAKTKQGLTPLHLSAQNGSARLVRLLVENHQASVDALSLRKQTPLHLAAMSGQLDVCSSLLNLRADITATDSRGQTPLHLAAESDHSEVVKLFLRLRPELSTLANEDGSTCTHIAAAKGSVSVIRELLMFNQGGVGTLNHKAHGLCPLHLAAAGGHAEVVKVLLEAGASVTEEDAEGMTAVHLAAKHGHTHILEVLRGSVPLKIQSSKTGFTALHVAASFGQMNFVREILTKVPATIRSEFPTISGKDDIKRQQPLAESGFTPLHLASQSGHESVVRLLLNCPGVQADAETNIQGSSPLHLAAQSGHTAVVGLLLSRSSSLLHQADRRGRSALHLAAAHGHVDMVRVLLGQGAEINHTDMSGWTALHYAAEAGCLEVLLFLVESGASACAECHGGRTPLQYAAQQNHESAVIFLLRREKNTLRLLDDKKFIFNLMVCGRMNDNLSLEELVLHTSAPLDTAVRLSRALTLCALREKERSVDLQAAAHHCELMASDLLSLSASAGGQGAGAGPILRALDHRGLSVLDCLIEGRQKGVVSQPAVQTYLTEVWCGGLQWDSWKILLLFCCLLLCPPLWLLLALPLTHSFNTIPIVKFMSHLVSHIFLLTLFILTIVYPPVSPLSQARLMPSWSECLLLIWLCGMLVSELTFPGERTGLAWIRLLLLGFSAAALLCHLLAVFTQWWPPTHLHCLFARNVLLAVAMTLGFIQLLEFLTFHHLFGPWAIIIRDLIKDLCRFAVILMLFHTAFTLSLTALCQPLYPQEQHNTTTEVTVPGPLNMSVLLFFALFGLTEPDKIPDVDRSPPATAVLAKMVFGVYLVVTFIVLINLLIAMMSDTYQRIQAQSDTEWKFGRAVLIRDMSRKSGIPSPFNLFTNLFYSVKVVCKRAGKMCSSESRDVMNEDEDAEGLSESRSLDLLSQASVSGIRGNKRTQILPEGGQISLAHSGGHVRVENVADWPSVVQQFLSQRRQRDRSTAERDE", "assay": "Fluorescence counterscreen assay for TRPML3 agonists: dose response cell-based high-throughput screening assay to identify agonists of the transient receptor potential channel N1 (TRPN1). [Related pubchem assays: 1526, 1424, 1448 ]", "type": "functional"}, "Mucolipin-3": {"target": "T2, Mucolipin-3 (Homo sapiens, UniProt Q8TDD5)", "T2 sequence (Q8TDD5 whole entry)": "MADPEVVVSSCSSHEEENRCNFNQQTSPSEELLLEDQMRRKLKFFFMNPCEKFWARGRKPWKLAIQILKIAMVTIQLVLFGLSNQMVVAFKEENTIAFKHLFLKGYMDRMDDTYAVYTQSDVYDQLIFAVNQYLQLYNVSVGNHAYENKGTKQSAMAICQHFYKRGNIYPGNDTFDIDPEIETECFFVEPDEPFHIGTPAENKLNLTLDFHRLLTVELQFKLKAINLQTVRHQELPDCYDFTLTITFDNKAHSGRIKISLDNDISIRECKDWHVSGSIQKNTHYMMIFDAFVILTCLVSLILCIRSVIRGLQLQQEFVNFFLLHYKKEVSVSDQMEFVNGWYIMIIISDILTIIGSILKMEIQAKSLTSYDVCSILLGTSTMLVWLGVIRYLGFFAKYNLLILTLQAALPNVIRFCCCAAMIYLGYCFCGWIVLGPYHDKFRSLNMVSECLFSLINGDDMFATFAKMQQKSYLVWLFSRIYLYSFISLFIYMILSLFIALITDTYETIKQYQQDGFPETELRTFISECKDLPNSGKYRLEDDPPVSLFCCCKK", "assay": "Dose response cell-based high-throughput screening assay for agonists of the transient receptor potential channel ML3 (TRPML3). [Related pubchem assays: 1526, 1424, 1448 ]", "type": "functional"}, "HEK293 [15]": {"test_system": "HEK293", "assay": "cells", "conditions": "Homo sapiens", "remark": "listed apart in the source"}, "Cytochrome P450 1A2": {"target": "T3, Cytochrome P450 1A2 (Homo sapiens, UniProt P05177)", "T3 sequence (P05177 whole entry)": "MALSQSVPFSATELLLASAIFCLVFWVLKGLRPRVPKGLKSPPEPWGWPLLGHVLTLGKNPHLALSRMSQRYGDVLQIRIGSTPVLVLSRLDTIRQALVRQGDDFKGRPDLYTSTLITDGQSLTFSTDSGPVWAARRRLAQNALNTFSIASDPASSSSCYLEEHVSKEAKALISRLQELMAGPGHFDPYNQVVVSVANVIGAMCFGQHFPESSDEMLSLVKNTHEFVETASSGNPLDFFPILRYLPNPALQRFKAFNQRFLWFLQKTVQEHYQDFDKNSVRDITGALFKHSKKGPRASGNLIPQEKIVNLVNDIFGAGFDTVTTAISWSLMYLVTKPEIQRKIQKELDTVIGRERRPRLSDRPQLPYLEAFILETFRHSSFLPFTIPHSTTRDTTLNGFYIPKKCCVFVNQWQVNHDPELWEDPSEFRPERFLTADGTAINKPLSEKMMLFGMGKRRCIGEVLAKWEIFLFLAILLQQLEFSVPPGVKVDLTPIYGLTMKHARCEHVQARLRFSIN"}, "[16]": {"assay": "HEp-2 cell cytotoxicity, dose response, cytotoxicity control for RSV inhibitor project, HTS (AID 2410)", "type": "functional", "conditions": "human respiratory syncytial virus"}}, "note": "Calls of active or inactive are those of the source.", "data": [{"smiles": "CC(=O)Nc1ccc(-c2nnc(SCc3ccc(C)cc3)n2C)cc1", "values": [{"measurement": "EC50", "setting": "[1]", "value": "3.6 µM (active)"}]}, {"smiles": "O=C(Cn1ccc(C(F)(F)F)n1)Nc1ccc(S(=O)(=O)NCc2ccco2)cc1", "values": [{"measurement": "AC50", "setting": "Escherichia coli", "value": "38.6 µM (active)"}]}, {"smiles": "Nc1nc(CCl)nc(Nc2cccc3ccccc23)n1", "values": [{"measurement": "EC50", "setting": "[2]", "value": "1.98 µM (active)"}, {"measurement": "EC50", "setting": "[3]", "value": "3.74 µM (active)"}, {"measurement": "EC50", "setting": "BJ [4]", "value": "6.34 µM (active)"}, {"measurement": "EC50", "setting": "BJ [5]", "value": "2.73 µM (inconclusive)"}, {"measurement": "EC50", "setting": "BJ [6]", "value": "0.288 µM (active)"}, {"measurement": "EC50", "setting": "BJ [7]", "value": "9.87 µM (inconclusive)"}]}, {"smiles": "O=C(CSc1nnc(-c2ccncc2)n1Cc1ccco1)N1c2ccccc2Sc2ccc(Cl)cc21", "values": [{"measurement": "EC50", "setting": "[1]", "value": "0.343 µM (active)"}, {"measurement": "EC50", "setting": "[8]", "value": "27.3 µM (active)"}]}, {"smiles": "Cn1c(-c2c(N)n(CCc3ccccc3)c3nc4ccccc4nc23)nc2ccccc21", "values": [{"measurement": "EC50", "setting": "[9]", "value": "> 92.5 µM (inactive)"}, {"measurement": "EC50", "setting": "[10]", "value": "> 92.5 µM (inactive)"}, {"measurement": "EC50", "setting": "Mu-type opioid receptor", "value": "24.8 µM (inactive)"}, {"measurement": "EC50", "setting": "[11]", "value": "> 160 µM (inactive)"}, {"measurement": "CC50", "setting": "[12]", "value": "> 40 µM (active)"}, {"measurement": "EC50", "setting": "[13]", "value": "> 38 µM (not active)"}]}, {"smiles": "COc1ccc(C(C)(C)C)cc1NC(=O)c1cc(S(=O)(=O)N(C)C)ccc1N1CCCC1", "values": [{"measurement": "EC50", "setting": "HEK293 [14]", "value": "> 59.6 µM (inactive)"}, {"measurement": "EC50", "setting": "Ion channel NompC", "value": "> 29.9 µM (not active)"}, {"measurement": "EC50", "setting": "Mucolipin-3", "value": "> 29.9 µM (not active)"}, {"measurement": "EC50", "setting": "HEK293 [15]", "value": "> 59.6 µM (inactive)"}]}, {"smiles": "CC(C)c1ccc(NC(=O)N(CCc2nc3ccccc3[nH]2)C2CCCC2)cc1", "values": [{"measurement": "AC50", "setting": "Cytochrome P450 1A2", "value": "11.2 µM (inconclusive)"}, {"measurement": "EC50", "setting": "[9]", "value": "> 92.4 µM (inactive)"}, {"measurement": "EC50", "setting": "[10]", "value": "> 92.4 µM (inactive)"}, {"measurement": "EC50", "setting": "Mu-type opioid receptor", "value": "> 92.4 µM (inactive)"}, {"measurement": "EC50", "setting": "[3]", "value": "> 195 µM (not active)"}, {"measurement": "CC50", "setting": "[16]", "value": "35.4 µM (active)"}]}]}
